# Laboratory results taken from PubChem BioAssay AID977606 (Broad Institute, 2014).
# Several values for one entry are separate records, joined by “and”; a condition that tells them apart may be missing. Identical values can stand only once. Activity calls are given as the source filed them. The rule behind the calls is not given here.
# System: INS-1E Gaussia luciferase insulin secretion, no glucose, luminescence
# Assay: glucose-independent GLuc insulin release activation – cell-based, INS-1E, Gaussia luciferase, luminescence, cherry-pick, counter-screen for glucose-dependent insulin secretion activators, dose response (AID 977606)
row,SMILES,AC40
1,COc1ccc2c(c1)CCc1c(C(=O)Nc3cc(C)n(Cc4ccc(Cl)cc4)n3)noc1-2,1.86 µM
2,O=C1Nc2ccccc2N(C(=O)c2ccc3ccccc3c2)C1c1nc2ccccc2[nH]1 (stereo not drawn),6.41 µM
3,NC1=NC[C@H](c2ccccc2)N1CCCCC1CCCCC1,17.4 µM
4,O=C(COc1ccccc1)Nc1sc2c(c1C(=O)NCc1cccnc1)CCCC2,6.97 µM
5,O=C(NCC1OCCc2ccccc21)c1ccc(NC(=O)c2cccc(Br)c2)cc1 (stereo not drawn),11.1 µM
6,NS(=O)(=O)c1ccc(NC(=O)COC(=O)c2cn(-c3ccccc3)nc2-c2ccc(F)cc2)cc1,4.09 µM
7,CCOc1ccccc1CNC(c1ccccc1)c1ccccc1,2.21 µM
8,COC(=O)c1ccc(C(=O)Nc2cc(Cl)ccc2Cl)cc1NC(=O)c1ccccc1C,1.39 µM
9,CNC[C@H](CC1CCCCC1)NC[C@H](Cc1ccccc1)NCCC12CC3CC(CC(C3)C1)C2,4.43 µM
10,COC(=O)c1ccc2c(c1)NC(=O)C(N(CC(C)C)CC(C)C)S2 (stereo not drawn),2.51 µM
11,CS(=O)(=O)c1cnc(-c2ccccc2)nc1Oc1ccc(F)cc1,10.9 µM
12,COc1ccc(C(=O)Nc2ccc3c(c2)C(=O)c2ccccc2C3=O)cc1OC,> 35 µM (inactive)
13,O=C(N/N=C/c1ccc(Cl)cc1Cl)Nc1ccccc1,7.4 µM
14,CCC(C)Sc1cccc(-c2nc3cnccn3c2NC2CCCCC2)c1 (stereo not drawn),4.26 µM
15,COc1ccc(NC(=O)Cn2cnc3c(cnn3-c3ccc(C)c(C)c3)c2=O)c(OC)c1,3.41 µM
16,NS(=O)(=O)c1ccc(CCNc2nc3c(-c4cccc(F)c4)nnn3c3ccccc23)cc1,2.03 µM
17,CCOc1cc(/C=N/NC(=O)CCn2nc(C)cc2C)ccc1O,21.9 µM
18,COc1ccccc1CCn1cnc(-c2ccccc2OC)c1CC(C)C,11.4 µM
19,CCOc1ncccc1C(=O)NC(C)CCc1ccccc1 (stereo not drawn),16.2 µM
20,COc1ccc(CC(N)c2csc(NC(=O)Nc3ccc(C(C)C)cc3)n2)cc1 (stereo not drawn),3.58 µM
21,Cc1cccn2cc(CNS(=O)(=O)c3ccc4ccccc4c3)nc12,2.91 µM
22,COC(=O)C1=C(C)N(Cc2cccc(C(F)(F)F)c2)C(=NCc2ccc(OC)cc2)NC1c1cccc(Cl)c1 (stereo not drawn),5.16 µM
23,O=C(N/N=C/c1ccco1)c1cc(-c2ccc3ccccc3c2)n[nH]1,3.97 µM
24,CCCCc1c(Cc2ccccc2)ncn1CCc1ccccc1OC,9.34 µM
25,Cc1cc(C)cc(NC(=O)Cc2ccc(-n3cccc3)cc2)c1,6.9 µM
26,Cc1cccc(-c2ccc(C3[C@@H]4CN(Cc5cccc(F)c5)C[C@H]3N4)cc2)c1 (stereo partly drawn),4.33 µM and 2.3 µM
27,CC1CCC(C(C)C)C(OCC(O)CNC(C)c2ccccc2)C1 (stereo not drawn),11.8 µM

row,SMILES,AC40
1,NC(c1csc(NC(=O)Nc2cccc(C(F)(F)F)c2)n1)C1CCCCC1 (stereo not drawn),6.68 µM
2,O=c1c2cc(F)ccc2sn1-c1ccccc1Cl,1.35 µM
3,COc1ccc(S(=O)(=O)N2CCc3ccccc3C2)cc1OC,> 35 µM (inactive)
4,Cc1ccc(NC(=O)c2ccc(COc3ccc4c(c3)CCC4)cc2)c(C)c1,0.841 µM
5,COC(=O)c1ccc2c(=O)[nH]c(CSc3nc(-c4ccc(F)cc4)cs3)nc2c1,4.39 µM
6,CCS(=O)(=O)Nc1ccc(-c2cc(-c3ccccc3)c3cc(C)ccc3n2)cc1,17.5 µM
7,CCc1ccc(OCC(=O)NC(=S)Nc2ccc(F)cc2)c(Br)c1,6.76 µM
8,CCOc1ccc(-n2nnnc2-c2nc3ccccc3s2)cc1,12.2 µM
9,CCCCc1c(Cc2cccc(F)c2)ncn1CCc1ccccc1OC,4.98 µM
10,Cc1cccc(-c2ccc(C3[C@@H]4CN(C(=O)C5CCCCC5)C[C@H]3N4)cc2)c1 (stereo partly drawn),11.3 µM
11,COc1cc(OC)c2c3c(c(C4CCCCC4)nc2c1)CCC3,7.44 µM
12,O=c1c2ccccc2sn1-c1ccccc1F,1.22 µM
13,CC(NCC(O)COCCC12CC3CC(CC(C3)C1)C2)c1ccccc1 (stereo not drawn),8.21 µM
14,COc1ccc(C(=O)c2sc(Nc3ccccc3)nc2N)cc1OC,26.5 µM
15,CN1CCN(C2Cc3ccccc3Sc3cc(C(F)(F)F)ccc32)CC1 (stereo not drawn),7.2 µM
16,CC(C)(C)c1nc2ccc(Cl)cn2c1CC1CCCCC1,13.2 µM
17,O=C(N/N=C/c1ccc(O)cc1O)NC12CC3CC(CC(C3)C1)C2,13.3 µM
18,NC(CCc1ccccc1)c1csc(Nc2ccc(C(F)(F)F)cn2)n1 (stereo not drawn),6.01 µM
19,CCOC(=O)c1c(-c2ccc(-c3ccccc3)cc2)csc1NC(=O)CNCCN(C)C,5.75 µM
20,O=C(Cn1cnc2c(OCc3ccccc3)ncnc21)NCc1ccccn1,31.1 µM
21,COc1ccccc1CCn1cnc(-c2ccc(F)cc2)c1CC(C)C,6.41 µM
22,Cc1nc(NC(=O)c2cccc(-c3cc4ccccc4oc3=O)c2)ccc1Br,7.19 µM
23,Cc1ccc(-n2nc3ccc(NC(=O)c4ccco4)cc3n2)cc1,8.86 µM
24,CCCNC(=O)Cn1sc2nc(C)cc(C)c2c1=O,2.31 µM
25,COc1ccc(C2=NN(C(C)=O)C(c3cccs3)C2)cc1OC (stereo not drawn),> 35 µM (inactive)
26,Cc1cccc(-n2c(C)c(C)c3c(N)ncnc32)c1,> 35 µM (inactive)
